Laboratory results from paper PMC8414802, “Hair Cell Generation in Cochlear Culture Models Mediated by Novel γ-Secretase Inhibitors” (Frontiers in Cell and Developmental Biology, 2021).
Where two headings read alike, the source gives them in different places.

Legend:
[1] = system: Myo7a+ hair cells in rat cochlear organoids; test: Rat cochlear organoids, hair cell differentiation; format: cell-based; details: for Total hair cells per organoid prior to normalization: end of differentiation, GSI 5 μM
Method: On day 0, the cochlear sensory epithelium was dissected and the OC was separated from the modiolus and stria vascularis, as described above, from either Wistar rat pups (P2), Lgr5-GFP mice (P0–P2) or Atoh1-GFP mice (P0–P2). To separate the sensory epithelial layer from underlying mesenchyme and neurons, the OC was placed in a 100 μl drop of Matrisperse Cell Recovery Solution (Corning) for 1 h at RT, then delaminated with the aid of forceps. Gentle enzymatic dissociation of hair cells and supporting cells followed with 100 μl drop of TrypLE (Gibco), 20 min at 37°C, then mechanical trituration in DMEM/F12. The cell suspension was centrifuged for 5 min at 500 g at 4°C and resuspended in DMEM/F12 medium supplemented with B27 and N2 (Invitrogen), EGF (50 ng/ml), bFGF (50 ng/ml), IGF (25 ng/ml), CHIR99021 (GSK-3β inhibitor, 3 μM, Merck), valproic acid (HDAC inhibitor, 1 mM, Sigma), 2-phospho-L-ascorbic acid (280 μM, Stemcell Technologies) and 0.01% ampicillin (Sigma). Cells were plated at 2,000 cells per well on 96 wells plate (Corning Costar; ultra-low attachment, round-bottom) to allow aggregation at 37°C. On day 1, Matrigel (GF-depleted, Corning; 2% stock) was added to a final concentration of 0.18 mg/ml. On day 3, cells were transferred to 24 wells plate (ultra-low attachment; Corning Costar), pooling the organoid aggregates from 4 to 5 wells (96 well-plate) to one 24-well, culturing at 37°C and exchanging half medium and Matrigel every other day, On day 10, organoids were differentiated by replacing medium with DMEM/F12 supplemented with B27, N2, CHIR99021 (3 μM), and Notch inhibitors CPD3 (5 μM) or LY411575 (5 μM), and culture was continued as above for another 10 days.
For staining and imaging, organoids were allowed to adhere ON onto transwell-permeable support membranes (Corning) in 12-well plates coated with 100% Matrigel. […] Compiled Z-projections were processed (FIJI, ver2.0) and hair cells quantified on individual planes with manual cell counter plugin, by evaluation of cytosolic expression and nuclear exclusion of Myo7a. […]

[2] = system: Notch-dependent expression of ATOH1 in LS174T cells; test: ATOH1 expression induction in LS174T cell line by GSIs (RT-PCR); format: cell-based, human; details: GSI treatment 72 h, fold-change vs 0.05% DMSO, read-out: IC50 for ATOH1 expression upregulation
Method: The human colon cancer cell line LS174T (CL-188; ATCC) was cultured without antibiotics in 1% FBS/Eagle’s Minimum Essential Medium (MEM; Thermo Fisher) ([Asakura et al., 2018]). […]
Cells or tissue were lysed using RLT Lysis Buffer (Qiagen) and high purity RNA was prepared on the MagNA Pure instrument using MagNA Pure 96 Cellular RNA LV Kit (Roche). Reagents from Thermo Fisher were used for cDNA synthesis by reverse transcription using random hexamers. Resulting cDNA was RNAse H treated and amplified by TaqMan GEX mastermix and PCR primers and probes for human ATOH1 (Hs00944192_s1) and TBP (Hs00427620_m1), mouse Tbp (Mm00446971_m1), Atoh1 (Mm00476035_s1), Hes5 (Mm00439311_g1), Pouf4s (Mm04213795_s1), and Myo7a (Mm01274015_m1) on the Applied Biosystems QuantStudio 7 Flex Real-Time PCR System. Normalized to Tbp, relative gene expression fold-change was quantified and compared between experimental and control conditions by ΔΔCt calculation.
Statistical analysis was performed with GraphPad Prism software (Prism9; GraphPad Software Inc., San Diego, CA, United States). For explant cultures, when the number of explants/replicates was not sufficient to test for Gaussian distribution normal distribution of the data was assumed based on previous experiments ([Perny et al., 2017]; [Erni et al., 2019]). Alternatively, the distribution of the datasets was tested by D’Agostino and Pearson normality test. Unpaired t-tests were used to compare parametric data sets of two groups. Welch’s correction was applied if variances were not equal. For non-parametric data, the Mann–Whitney test was adopted. One-way ANOVA was used to determine the difference in means among multiple groups and multiple comparison correction was tested. Graphs indicate the single data point, the mean values ± standard deviation. IC50s were calculated by non-linear regression of data normalized by percent change from controls to compare multiple experiments. Differences in IC50s from Best fit data were compared by Least Squares (F-test; Extra sum of squares; alpha = 0.05).
To measure the relative potency between different GSIs, a pharmacological assay was initially used to identify the dose ranges effective to induce ATOH1 expression. The cell line LS174T, a human colorectal adenocarcinoma, was used to evaluate Notch-dependent expression of ATOH1 ([Kazanjian et al., 2010]). Two compounds from Eli Lilly, designated LY3056480 (CPD3) and LY3056359 (CPD8) (Figures 1A,B) were compared with the commercially available GSIs LY411575 and DAPT. […] The intermediate potency of CPD3 and 8 was likely to be adequate to achieve levels above the IC50 after dilution into perilymph in the inner ear.

Row | Compound | Hair cell numbers during differentiation ([1]; diff D20 vs exp D10, p < 0.05) | Total hair cells per organoid prior to normalization [1] | IC50 ([2]; Homo sapiens) [nM] | IC50 [2] [nM]
1 | COc1ccc2c(c1)N1CCC(C)(C)C1=CC(=O)[C@H]2NC(=O)[C@H](C)NC(=O)CCC(F)(F)F [CPD3] | significantly increased | 22.8 ± 18.0 | 17.3 | 
2 | C[C@H](NC(=O)[C@@H](O)c1cc(F)cc(F)c1)C(=O)N[C@@H]1C(=O)N(C)c2ccccc2-c2ccccc21 [LY411575] |  | 17.17 ± 20.9 |  | 0.4
